Test results taken from patent US12600724B2, “Indole alkaloid and preparation method and use thereof” (NANJING UNIVERSITY OF CHINESE MEDICINE, priority 2022, dated 2026).

System: primary DRG neuron
Assay: Axon growth of primary DRG neurons (immunofluorescence, Neuro J)
Format: cell-based, C57BL/6J mice
Conditions: Mus musculus, 24 hours, multiple of total axon length of a single DRG neuron relative to blank control group
Description: Diabetic peripheral neuropathy involved a sensory neuron first, and a main pathological change was axonal atrophy and degeneration, or even disappearance. […] Therefore, the compounds in the examples were added with the primary DRG neuron to incubate for a certain period of time, then the axon growth of the DRG neuron was detected by immunofluorescence, and an axon length was quantified by Neuro J, so as to evaluate the promotion effect of the compound on the axon growth of the peripheral sensory neuron.
Primary antibodies of mice anti-β-tubulin III used for fluorescent staining were purchased from Sigma Company, cell culture reagents were all purchased from Gibco Company, and DRG neuronal cells were taken from C57BL/6J mice. Specific experimental steps were as follows: fresh DRG of the C57 mice was extracted to digest into a single-cell suspension and then inoculated into a culture plate for adherent culture overnight, with vinblastine as a positive drug, the to-be-detected compounds S1 to S87 ([…]) synthesized in the above examples were given to incubate for 24 hours, then an original culture medium was removed, 4% paraformaldehyde was added into each well to fix for 15 minutes after PBS washing, the mixture was permeabilized with 0.3% TritonX-100 for 5 minutes and sealed at room temperature with 4% BSA for 1 hour, a primary antibody (1:1000) was incubated at 4° C. overnight, a goat anti-mouse fluorescent secondary antibody (1:300) was incubated at room temperature in the dark for 1 hour, and a sealed slide was imaged by a fluorescence microscope (Leica). According to the image, a total axon length of a single DRG neuron was tracked by a Neuro J plug-in in Image J software, and a multiple of the total axon length relative to that of the blank control group was calculated.

SMILES	fold induction at 10 µM
CC[C@@]12C=C(C(=O)N[C@@H](CC(=O)O)C(=O)O)n3c4c(c5ccccc53)CCN(CCC1)[C@H]42 [Compound S70]	10.8
CC[C@@]12C=C(C(=O)N[C@@H](CC(N)=O)C(=O)O)n3c4c(c5ccccc53)CCN(CCC1)[C@H]42 [Compound S71]	10.5
CC[C@@]12C=C(C(=O)N[C@@H](CN)C(=O)O)n3c4c(c5ccccc53)CCN(CCC1)[C@H]42 [Compound S72]	11.3
CC[C@@]12C=C(C(=O)N[C@@H](C)C(=O)O)n3c4c(c5ccccc53)CCN(CCC1)[C@H]42 [Compound S73]	12.1
CC[C@@]12C=C(C(=O)N[C@H](C(=O)O)C(C)C)n3c4c(c5ccccc53)CCN(CCC1)[C@H]42 [Compound S74]	10.9
CC[C@@]12C=C(C(=O)N[C@@H](Cc3ccccc3)C(=O)O)n3c4c(c5ccccc53)CCN(CCC1)[C@H]42 [Compound S75]	10.7
CC[C@@]12C=C(C(=O)NCC(=O)N[C@@H](CS)C(=O)O)n3c4c(c5ccccc53)CCN(CCC1)[C@H]42 [Compound S76]	11.1
CC[C@@]12C=C(C(=O)NCC(=O)N[C@@H](CC(N)=O)C(=O)O)n3c4c(c5ccccc53)CCN(CCC1)[C@H]42 [Compound S77]	10.8
CC[C@@]12C=C(C(=O)NCC(=O)N[C@@H](Cc3ccc(O)cc3)C(=O)O)n3c4c(c5ccccc53)CCN(CCC1)[C@H]42 [Compound S78]	10.2
CC[C@@]12C=C(C(=O)NCC(=O)N[C@@H](CC(C)C)C(=O)O)n3c4c(c5ccccc53)CCN(CCC1)[C@H]42 [Compound S79]	10.6
CC[C@@]12C=C(C(=O)NCC(=O)N[C@H](C(=O)O)C(C)C)n3c4c(c5ccccc53)CCN(CCC1)[C@H]42 [Compound S80]	11.3
CC[C@@]12C=C(C(=O)NCC(=O)N[C@@H](CO)C(=O)O)n3c4c(c5ccccc53)CCN(CCC1)[C@H]42 [Compound S81]	11.9
CC[C@@]12C=C(C(=O)N[C@@H](C)C(=O)OC)n3c4c(c5ccccc53)CCN(CCC1)[C@H]42 [Compound S82]	12.5
CC[C@@]12C=C(C(=O)NCC(=O)OC)n3c4c(c5ccccc53)CCN(CCC1)[C@H]42 [Compound S83]	12.7
CC[C@@]12C=C(C(=O)N[C@H](C(=O)OC)C(C)C)n3c4c(c5ccccc53)CCN(CCC1)[C@H]42 [Compound S84]	11
CC[C@@]12C=C(C(=O)N[C@@H](CO)C(=O)OC)n3c4c(c5ccccc53)CCN(CCC1)[C@H]42 [Compound S85]	11.8
CC[C@@]12C=C(C(=O)NCC(=O)N[C@@H](CC(C)C)C(=O)OC)n3c4c(c5ccccc53)CCN(CCC1)[C@H]42 [Compound S86]	11
CC[C@]12CCCN3CCc4c(n(c5ccccc45)[C@@](O)(C(=O)OC)C1)[C@@H]32 [Vincamine, reference compound]	9.5
